Reference: patent US5904915A, “Method of diagnosing pathological state of tumor cells using a diagnostic agent for glycometabolic function” (Nihon Medi-Physics Co., Ltd., priority 1996, dated 1999)
“Also recorded” adds a separate entry of the source. Where two headings read alike, the source gives them in different places.

Legend:
LS180 cells [1] = assay: Temperature dependence of intracellular accumulation of AFDG; type: cell-based, human; conditions: 60 minutes after administration, 5 μCi
Description: In order to study the temperature dependence of intracellular accumulation of AFDG, an uptake experiment was conducted different from Experiment 1. Cells were suspended in a culture medium at a concentration of 1×10^6 cells/ml and incubated in portions of 1 ml at 4° C. or 37° C. for 15 minutes. Then, 5 μCi of AFDG was added and incubated for 2, 5, 10, 30 and 60 minutes, respectively. At every determined times, cells were centrifuged to make a pellet, which was washed with a cold PBS. After washing twice, the pellet was lysed by 0.2N NaOH solution and assayed for radioactivity.

LS180 cells [2] = assay: Effect of extracellular glucose concentration on accumulation and metabolism of FDG and AFDG; type: cell-based, human
Description: Then, cells were washed three times with a cold PBS, lysed with 50% ethanol and the lysate was assayed for metabolites.

LS180 cells [3] = assay: Effect of DNP on accumulation and metabolism of FDG and AFDG; type: cell-based, human
Source text: (§1) Then, cells were washed three times with a cold PBS, lysed with 50% ethanol and assayed for metabolites.

LS180 cells [4] = assay: Effect of AFDG administration on accumulation of glucose; type: cell-based, human; conditions: amount used in this experiment
LS180 cells [5] = assay: Effect of administered dose of AFDG on its intracellular accumulation; type: cell-based, human; conditions: increase of the dose of AFDG
LS180 cells [6] = assay: Effect of IAA (hexokinase inhibition) on accumulation and metabolism of FDG and AFDG; type: cell-based, human
Source text: as §1

LS180 cells [7] = assay: Metabolism of AFDG and FDG in LS180 cells (TLC of metabolites); type: cell-based, human
Description: After carrying out an experiment according to Experiment 1, cells were stripped off from the plate using 100 μl of 50% ethanol and the solution was centrifuged at 15000 rpm. A 25 μl aliquot of supernatant was subjected to analysis of metabolites by thin-layer chromatography (TLC). The eluent was acetonitrile/water=95/5, and the carrier was silica gel 60. The plate after development was cut at 5 mm intervals and assayed for radioisotope with a gammer counter. Total radioactivity of respective metabolites were calculated from the ratio of metabolites obtained in TLC.

LS180 cells [8] = assay: Time-course accumulation of FDG and AFDG in LS180 tumor cells; type: cell-based, human
Description: LS180 cells were stripped off from the petri dish using trypsin, inoculated on a plate having 24 holes at a concentration of 20×10^4 cells/ml and subjected to the uptake experiment after 24 hours. […] Radioactivity of the lysed solution was measured by an Autowell gamma counter (ARC-2000, manufactured by Aloka corporation).

GLUT = assay: Effect of DNP on rate of uptake of 3-OMG (GLUT transport) in LS180 cells; type: cell-based, human
Source text: While it is known that 2,4-dinitrophenol, an uncoupling agent for mitochondrion, causes expression of GLUT on cell membrane to normal cells by a transient decrease of intracellular ATP as a trigger, it has not been confirmed that it has a similar effect on tumor cells. Therefore, transport of [H-3]-3-O-methylglucose in the DNP-treated tumor cells was studied for the case in which GLUT was inhibited by cytocharasin B and for the case in which it was not inhibited, respectively. [H-3]-3-O-methylglucose is a D-glucose derivative which is not subjected to metabolism such as phosphorylation after take up into cells and therefore can suitably be used in an experiment for studying transport ability of GLUT. In the case of DNP treatment, accumulation of [H-3]-3-O-methylglucose was increased by about 70% as compared with the case of no treatment (Table 1), and therefore it was considered that the amount of GLUT expressed on the cell membrane was increased by 70% with the treatment by DNP. The increase in amount was by far smaller than the increase described for normal cells. This is due to the fact that the amount of GLUT expressed on the tumor cell membrane is by far greater than the amount for normal cells.
For studying uptake of [H-3 ]-3-O-methylglucose (3-OMG) into cells excluding nonspecific bonding, usually cytocharasin B is used. After incubating 10^6 LS180 cells in a medium containing 200 μM DNP placed in a plate having 24 holes, the medium was changed to a medium containing 5 μCi 3-OMG and 200 μM […], respectively, and additionally 50 μM cytocharasin B or a medium without cytocharasin B and the respective cultures were incubated for 60 seconds. Immediately after, the medium was removed and cells were washed three times with a cold PBS containing 0.1 mM phloretin and lysed with 500 μl of 0.2 N NaOH solution. After lysis, a 200 μl portion was used for quantitative determination of proteins and the remaining 300 μl was mixed with a scintillator and radioactivity was measured by a liquid scintillation counter (LSC 5000, manufactured by Aloka corporation). The taken-up amount of 3-OMG which may be inhibited by cytocharasin B was integrated from the difference in mean values of 10 holes in the plate for 3-OMG uptake without cytocharasin B. The results of the experiment are shown in Table 1.

hexokinase = conditions: 5 μM IAA, 37° C.; inferred from accumulation of FDG
Source text: as §1

CC(=O)OC[C@H]1OC(OC(C)=O)[C@H]([18F])[C@@H](OC(C)=O)[C@@H]1OC(C)=O (stereo partly shown) [AFDG, 1,3,4,6-tetra-O-acetyl-2-[F-18]fluorodeoxyglucose]
accumulation of AFDG at 4° C. relative to that at 37° C. (LS180 cells [1]): one fourth | production of FDG-6P on doubling glucose concentration in medium (LS180 cells [2]; 11.2 mM vs 22.4 mM glucose, 60 minutes): did not change; also recorded: no change was observed; also recorded: substantially not affected | intracellular accumulation on doubling glucose concentration in medium (LS180 cells [2]; 11.2 mM vs 22.4 mM glucose, 60 minutes, after AFDG: accumulation of FDG (hydrolysate)): did not change; also recorded: substantially not affected | FDG-6P derived from AFDG in the presence of DNP (LS180 cells [3]; 200 μM DNP, 37° C.): decreased | intracellular accumulation in the presence of DNP (LS180 cells [3]; 200 μM DNP, 37° C.): decreased | accumulation of glucose when AFDG was administered (LS180 cells [4]): not inhibited | change in intracellular accumulation with administered dose (LS180 cells [5]): increased with the increase of the dose of AFDG | intracellular accumulation in the presence of IAA (LS180 cells [6]; 5 μM IAA, 37° C.): remarkably decreased | presence of FDG and FDG-6P in cells after uptake of AFDG (LS180 cells [7]; 5 minutes after administration): substantially absent | production of FDG-6P from AFDG relative to that from FDG (LS180 cells [7]; 60 minutes after administration): 1.63 times | FDG-6P share of total intracellular radioactivity (sum of AFDG, FDG and FDG-6P) (LS180 cells [7]; 60 minutes after administration of AFDG): about 50% | hydrolysis of AFDG to FDG in cells (LS180 cells [7]; by esterase, intracellular): quickly hydrolyzed by esterase to FDG and quickly hydrolyzed to form FDG and fast | stability in the extracellular medium (LS180 cells [7]; extracellular medium): stable | velocity of hydrolysis of AFDG compared with phosphorylation of FDG (LS180 cells [7]; intracellular): greater | accumulation of AFDG and that of FDG after administration of AFDG (LS180 cells [7]; time course after 5 minutes): followed a constant course | accumulation of FDG-6P after administration of AFDG (LS180 cells [7]; time course after 5 minutes): increased linearly with passage of time | accumulation in time course (LS180 cells [8]; LS180 cells, 2 to 60 minutes, 5 μCi): accumulated rapidly in cells in a nonlinear manner | mechanism of uptake into cells (LS180 cells [8]; concluded from the experiments): taken up by simple diffusion

CO[C@H]1[C@H](O)[C@@H](CO)OC(O)[C@@H]1O (stereo partly shown) [[H-3]3-OMG, [H-3]-3-O-methylglucose]
Accumulation of [H-3]3-OMG, Difference, DNP treatment (GLUT; Cytocharasin B absent minus present, 200 μM DNP): 3460 dpm/min/100 μg protein | Accumulation of [H-3]3-OMG, Difference, Control (GLUT; Cytocharasin B absent minus present, no DNP): 2014 dpm/min/100 μg protein | Accumulation of [H-3]3-OMG, DNP treatment (GLUT; Cytocharasin B absent, 200 μM DNP): 4763 ± 669 dpm/min/100 μg protein | Accumulation of [H-3]3-OMG, Control (GLUT; Cytocharasin B absent, no DNP): 3235 ± 307 dpm/min/100 μg protein | Accumulation of [H-3]3-OMG, DNP treatment (GLUT; Cytocharasin B present (50 μM), 200 μM DNP): 1303 ± 229 dpm/min/100 μg protein | Accumulation of [H-3]3-OMG, Control (GLUT; Cytocharasin B present (50 μM), no DNP): 1511 ± 231 dpm/min/100 μg protein | increase of accumulation of [H-3]-3-O-methylglucose with DNP treatment (GLUT; compared with no treatment): about 70% | Difference relative to control, Control (GLUT; in parentheses, no DNP): 1.00 | Difference relative to control, DNP treatment (GLUT; ls180 cells, 200 µM): 1.71

O=[N+]([O-])c1ccc(O)c([N+](=O)[O-])c1 [DNP, 2,4-dinitrophenol]
increase of amount of GLUT expressed on the cell membrane with DNP (GLUT; inferred from 3-OMG accumulation): 70%

OC[C@H]1OC(O)[C@H]([18F])[C@@H](O)[C@@H]1O (stereo partly shown) [FDG, 2-[F-18]fluorodeoxyglucose, reference compound]
intracellular accumulation on doubling glucose concentration in medium (LS180 cells [2]): decreased | intracellular accumulation in the presence of DNP (LS180 cells [3]): increased | activation at 200 µM (LS180 cells [3]; Homo sapiens, LS180, read-out: increase of uptake of FDG with DNP): ~80% | intracellular accumulation in the presence of IAA (LS180 cells [6]): remarkably decreased | accumulation in time course (LS180 cells [8]): accumulated and increased almost linearly

O=C(O)CI [IAA, iodoacetate]
hexokinase activity in the presence of IAA (hexokinase): remarkably decreased
